Patent publication US8802597B2, “Herbicidal pyrimidines” (E I du Pont de Nemours and Company, priority 2003, dated 2014)
Read-outs that look alike come from different tables or passages of the source.

Tests used:
Assay in all cases: Test C pre/postemergence
Format in all cases: in vivo
[1] = test system: goosegrass (Eleusine indica); details: Eleusine indica; for pest or weed control at 16 g/ha: 16 g ai/ha; for pest or weed control at 31 g/ha: 31 g ai/ha; for pest or weed control at 62 g/ha: 62 g ai/ha; for pest or weed control at 125 g/ha: 125 g ai/ha
Method in brief: (§1)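 Percent control is a visual rating (0 none, 100 complete) taken against untreated plants after 12 to 14 days of greenhouse growth. Applications were made preemergence to seeded pots and postemergence to plants at the 1- to 4-leaf stage, in a non-phytotoxic surfactant-containing solvent.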

[2] = test system: common (oilseed) sunflower (Helianthus annuus); details: Helianthus annuus, pre-emergence, Preemergence, read-out: Plant response rating, Sunflower
Method in brief: as §1

[3] = test system: pigweed (Amaranthus retroflexus); details: Amaranthus retroflexus; for pest or weed control at 16 g/ha: 16 g ai/ha; for pest or weed control at 31 g/ha: 31 g ai/ha; for pest or weed control at 62 g/ha: 62 g ai/ha; for pest or weed control at 125 g/ha: 125 g ai/ha
Method in brief: as §1

[4] = test system: bermudagrass (Cynodon dactylon); details: Cynodon dactylon; for pest or weed control at 16 g/ha: 16 g ai/ha; for pest or weed control at 31 g/ha: 31 g ai/ha; for pest or weed control at 62 g/ha: 62 g ai/ha; for pest or weed control at 125 g/ha: 125 g ai/ha
Method in brief: as §1

[5] = test system: giant foxtail (Setaria faberii); details: Setaria faberi; for pest or weed control at 125 g/ha: 125 g ai/ha; for pest or weed control at 16 g/ha: 16 g ai/ha; for pest or weed control at 31 g/ha: 31 g ai/ha; for pest or weed control at 62 g/ha: 62 g ai/ha
Method in brief: as §1

[6] = test system: morningglory (Ipomoea coccinea); details: Ipomoea; for pest or weed control at 16 g/ha: 16 g ai/ha; for pest or weed control at 31 g/ha: 31 g ai/ha; for pest or weed control at 62 g/ha: 62 g ai/ha; for pest or weed control at 125 g/ha: 125 g ai/ha
Method in brief: as §1

[7] = test system: soybean (Glycine max); details: Glycine max, post-emergence, Postemergence, 16 g ai/ha; read-out: Plant response rating (scale of 0 to 100), Soybean
Method in brief: as §1

[8] = post-emergence, Postemergence, read-out: Plant response rating (scale of 0 to 100), Goosegrass
[9] = post-emergence, Postemergence, scale 0 to 100 (0 no effect, 100 complete control), read-out: Goosegrass plant response rating
[10] = pre-emergence, Preemergence, scale 0 to 100, 0 no effect, 100 complete control, read-out: Plant response rating, Goosegrass
[11] = post-emergence, Postemergence, read-out: Plant response rating (scale of 0 to 100), Pigweed
[12] = post-emergence, Postemergence, scale 0 to 100 (0 no effect, 100 complete control), read-out: Pigweed plant response rating
[13] = pre-emergence, Preemergence, scale 0 to 100, 0 no effect, 100 complete control, read-out: Plant response rating, Pigweed
[14] = post-emergence, Postemergence, read-out: Plant response rating (scale of 0 to 100), Bermudagrass
[15] = post-emergence, Postemergence, scale 0 to 100 (0 no effect, 100 complete control), read-out: Bermudagrass plant response rating
[16] = pre-emergence, Preemergence, scale 0 to 100, 0 no effect, 100 complete control, read-out: Plant response rating, Bermudagrass
[17] = post-emergence, Postemergence, scale 0 to 100 (0 no effect, 100 complete control), read-out: Foxtail, Giant plant response rating
[18] = post-emergence, Postemergence, read-out: Plant response rating (scale of 0 to 100), Foxtail, Giant
[19] = pre-emergence, Preemergence, scale 0 to 100, 0 no effect, 100 complete control, read-out: Plant response rating, Foxtail, Giant
[20] = post-emergence, Postemergence, read-out: Plant response rating (scale of 0 to 100), Morningglory
[21] = post-emergence, Postemergence, scale 0 to 100 (0 no effect, 100 complete control), read-out: Morningglory plant response rating
[22] = pre-emergence, Preemergence, scale 0 to 100, 0 no effect, 100 complete control, read-out: Plant response rating, Morningglory

COC(=O)c1nc(C2CC2)nc(N)c1F [Compound 25]
85%: pest or weed control at 125 g/ha ([3]; pre-emergence, Preemergence, scale 0 to 100, read-out: Plant response rating, Pigweed)
35%: pest or weed control at 62 g/ha [3, 13]
90%: pest or weed control at 125 g/ha ([2]; 125 g ai/ha, scale 0 to 100) | pest or weed control at 16 g/ha [6, 20] | pest or weed control at 31 g/ha [6, 20] | pest or weed control at 62 g/ha [6, 21] | pest or weed control at 125 g/ha [6, 21] | pest or weed control at 125 g/ha ([6]; pre-emergence, Preemergence, scale 0 to 100, read-out: Plant response rating, Morningglory)
5%: pest or weed control at 16 g/ha ([2]; 16 g ai/ha, scale 0 to 100, 0 no effect, 100 complete control) | pest or weed control at 62 g/ha [5, 17]
50%: pest or weed control at 16 g/ha [3, 11] | pest or weed control at 31 g/ha [3, 11] | pest or weed control at 62 g/ha [6, 22]
40%: plant injury at 16 g/ha [7]
10%: pest or weed control at 125 g/ha ([4]; pre-emergence, Preemergence, scale 0 to 100, read-out: Plant response rating, Bermudagrass)
80%: pest or weed control at 62 g/ha [3, 12]
75%: pest or weed control at 62 g/ha ([2]; 62 g ai/ha, scale 0 to 100, 0 no effect, 100 complete control)
100%: pest or weed control at 125 g/ha [3, 12]
60%: pest or weed control at 31 g/ha ([2]; 31 g ai/ha, scale 0 to 100, 0 no effect, 100 complete control)
30%: pest or weed control at 31 g/ha [3, 13] | pest or weed control at 125 g/ha [5, 17]
0%: pest or weed control at 16 g/ha [1, 8] | pest or weed control at 31 g/ha [1, 8] | pest or weed control at 62 g/ha [1, 9] | pest or weed control at 125 g/ha [1, 9] | pest or weed control at 16 g/ha [1, 10] | pest or weed control at 31 g/ha [1, 10] | pest or weed control at 62 g/ha [1, 10] | pest or weed control at 125 g/ha ([1]; pre-emergence, Preemergence, scale 0 to 100, read-out: Plant response rating, Goosegrass) | pest or weed control at 16 g/ha [3, 13] | pest or weed control at 16 g/ha [4, 14] | pest or weed control at 31 g/ha [4, 14] | pest or weed control at 62 g/ha [4, 15] | pest or weed control at 125 g/ha [4, 15] | pest or weed control at 16 g/ha [4, 16] | pest or weed control at 31 g/ha [4, 16] | pest or weed control at 62 g/ha [4, 16] | pest or weed control at 16 g/ha [5, 18] | pest or weed control at 31 g/ha [5, 18] | pest or weed control at 16 g/ha [5, 19] | pest or weed control at 31 g/ha [5, 19] | pest or weed control at 62 g/ha [5, 19] | pest or weed control at 125 g/ha ([5]; pre-emergence, Preemergence, scale 0 to 100, read-out: Plant response rating, Foxtail, Giant) | pest or weed control at 16 g/ha [6, 22] | pest or weed control at 31 g/ha [6, 22]
